In patent publication US11084786B2, “Compounds and pharmaceutical composition associated with ubiquitination-proteasome system” (CALGENT BIOTECHNOLOGY CO., LTD., priority 2015, dated 2021) one finds IC50 and GI50 data, which are given here for three molecules.

Type in all cases: cell-based
Assay [1] concerns HL-60. The assay is described as follows: Growth inhibition assay (MTT), HL-60. The conditions noted are these: Homo sapiens, HL-60 cells, 48 hours exposure, read-out: HL-60 IC50 (μM) Mean ± S.E. How it is done: (§1) Antiproliferative Activity Against Human Normal and Cancer Cell Lines Using Growth Inhibition Assay (GI50)
(§2) The compounds of the invention were subjected to growth inhibition assay. Cells were seeded in 96-well plastic plates and exposed to MPT0L132, MPT0L133, and MPT0L134 for 48 hours. Cell viability was assessed using the 3-(4,5-dimethylthiazol-2-yl)-2,5-diphenyltetrazolium bromide assay. Growth inhibition was expressed as the percentage of surviving cells in drug-treated versus DMSO-treated control cells.

Assay [2] has as its system Hep3B. The assay can be described thus: Growth inhibition assay (MTT), Hep3B. The conditions noted are these: Homo sapiens, Hep3B cells, 48 hours exposure, read-out: Hep3B GI50 (μM) Mean ± S.E. How it is done: as §1, §2
For assay [3], the system named is HCT-116. The assay can be described thus: Growth inhibition assay (MTT), HCT-116. The following applies: Homo sapiens, HCT-116 cells, 48 hours exposure, read-out: HCT-116 GI50 (μM) Mean ± S.E. How it is done: as §1, §2
Assay [4] deals with MDA-MB-231. The assay is described as follows: Growth inhibition assay (MTT), MDA-MB-231. The conditions noted are these: Homo sapiens, MDA-MB-231 cells, 48 hours exposure, read-out: MDA-MB-231 GI50 (μM) Mean ± S.E. How it is done: as §1, §2

One may read the IC50 as the point on the concentration scale where inhibition reaches its midpoint. What is called GI50 is the concentration giving 50% growth inhibition. Consider `CN(C)CCNC(=O)c1ccc(CNC2=C(Cl)C(=O)c3ccccc3C2=O)cc1` [MPT0L132, 4-(((3-chloro-1,4-dioxo-1,4-dihydronaphthalen-2-yl)amino)methyl)-N-(2-(dimethylamino)ethyl)benzamide], for which the IC50 in assay [1] was 2.5 ± 0.15 µM. The GI50 in assay [2] is 10 to 30 µM; in assay [3] it was 3.69 ± 0.24 µM; in assay [4] it was 10 to 30 µM.

Regarding `O=C(NCCN1CCCC1)c1ccc(CNC2=C(Cl)C(=O)c3ccccc3C2=O)cc1` [MPT0L133, 4-(((3-chloro-1,4-dioxo-1,4-dihydronaphthalen-2-yl)amino)methyl)-N-(2-(pyrrolidin-1-yl)ethyl)benzamide], in assay [1], the IC50 was determined as 1.67 ± 0.27 µM. Besides, the GI50 in assay [2] is 10 to 30 µM; in assay [3], 4.04 ± 0.65 µM; in assay [4], 10 to 30 µM.

`CCN(CC)CCNC(=O)c1ccc(CNC2=C(Cl)C(=O)c3ccccc3C2=O)cc1` [MPT0L134, 4-(((3-chloro-1,4-dioxo-1,4-dihydronaphthalen-2-yl)amino)methyl)-N-(2-(diethylamino)ethyl)benzamide]: in assay [1], the IC50 came to 2.52 ± 0.12 µM. Moreover, the GI50 was 10 to 30 µM in assay [2], 3.53 ± 0.24 µM in assay [3] and 10 to 30 µM in assay [4].
